Assay results reported in the supplement of paper PMC10949913.
Where “and” joins values, the source holds several entries; their conditions need not be identical. Equal entries are not always repeated.

How the values were obtained:
Conditions in all cases: 48 h
CU-ACC1 [1] = assay: AC50 viability; higher = less potent
Procedure, shortened: (§1)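 Three adrenocortical carcinoma cell lines in 1,536-well plates received 23 nL of each library compound at 11 concentrations and were read with CellTiter-Glo after 48 h, with 15 minutes at room temperature before measuring luminescence. Vehicle and empty-well controls served for per-plate normalisation. AC50 and area under the curve were extracted from fitted concentration-response curves, discarding all curve classes other than inhibitory or non-responding.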

CU-ACC2 [2] = assay: AC50 viability; higher = less potent
Procedure, shortened: as §1

CU-ACC1 [3] = assay: area under concentration-response curve (viability) (AUC (a.u.)); higher = less active
Procedure, shortened: as §1

CU-ACC2 [4] = assay: as above
Procedure, shortened: as §1

NCI-H295R [5] = assay: as above
Procedure, shortened: as §1

NCI-H295R [6] = assay: AC50 viability; higher = less potent
Procedure, shortened: as §1

SMILES | AC50 viability (CU-ACC1 [1]) [µM] | AC50 viability (CU-ACC2 [2]) [µM] | area under concentration-response curve (CU-ACC1 [3]) | area under concentration-response curve (CU-ACC2 [4]) | area under concentration-response curve (NCI-H295R [5]) | AC50 viability (NCI-H295R [6]) [µM]
CCC[C@H](NC(=O)/C(C#N)=C/c1cccc(Br)n1)c1ccccc1 | 26.3 | 26.3 | 468 | 565 | – | –
CN1C(=O)/C(=C(NC2=CC=C(I)C=C2F)\C3=C1\N=C/N(C[C@@H](O)CO)C3=O)F | 8.33 | 11.8 | 431 | 497 | 534 | –
O=C(NOCC1CC1)c1ccc(F)c(F)c1Nc1ccc(I)cc1Cl | 13.2 | 16.6 | 485 | 527 | – | –
O=C1[C@H](Cc2ccc(O)cc2)N2C(=O)CCN(C(=O)NCc3ccccc3)[C@H]2CN1Cc1cccc2ccccc12 | 11.8 | 4.68 | 531 | 554 | 496 | –
CN1\N=C(N)/C2=C[N]([C@@H]3O[C@H](CO[P](O)(O)=O)[C@@H](O)[C@H]3O)C4=C2C1=NC=N4 | 11.8 | 4.68 | 429 | 464 | 493 | –
C=C1/C(=C\C=C2/CCC[C@]3(C)[C@@H]([C@H](C)CCCC(C)(C)O)CC[C@@H]23)C[C@@H](O)C[C@@H]1O | 16.6 | 14.8 | 408 and 314 | 329 and 416 | 364 | –
O=C(c1ccc(Nc2nc(C3CC3)cn3c(-c4cn[nH]c4)cnc23)c(F)c1)N1CCOCC1 | 3.32 | 14.8 | 366 | 343 | – | –
C[C@@H]\1CC(=O)N\N=C1C2=CC=C(NN=C(C#N)C#N)C=C2 | 11.8 | 16.6 | 375 | 425 | 363 | –
Cc1c(NC(=O)c2cc(C(N)=O)nc3cc(F)ccc23)c(C(F)(F)F)nn1Cc1ccc(C#N)cc1 | 1.66 | 10.5 | 460 | 443 | 462 | –
CC1=C(/C=C/C(C)=C/C=C/C(C)=C/C(=O)Nc2ccc(O)cc2)C(C)(C)CCC1 | 0.235 | 0.295 | 232 | 170 | 179 | –
CC(O)c1cc(C(=O)N[C@@H](C)Cn2ccc(-c3ccc(C#N)c(Cl)c3)n2)n[nH]1 (stereo partly drawn) | 33.2 | 20.9 | 454 | 488 | – | –
COc1cc2c(cc1OC(C)C)[C@H](c1ccc(Cl)cc1)N(c1ccc(N(C)C[C@H]3CC[C@H](N4CCN(C)C(=O)C4)CC3)cc1)C(=O)C2 | 16.6 | 20.9 | 427 | 510 | – | –
Nc1nc(N)c(N=O)c(OCC2CCCCC2)n1 | – | 20.9 | 466 | 492 | 451 | 9.34
CCCNCC(O)COc1ccccc1C(=O)CCc1ccccc1 (stereo not drawn) | 23.5 | 23.5 | 417 | 451 | – | –
CC/C(=C(/c1ccc(O)cc1)c1ccc(OCCNC)cc1)c1ccccc1 | – | 9.34 | 393 | 403 | 359 | 7.42
CCC[C@@H](C=O)NC(=O)[C@H](CC(C)C)NC(=O)[C@H](CC(C)C)NC(=O)OCc1ccccc1 | – | 1.48 | 417 | 438 | 439 | 1.18
COc1ccc(-c2ccc3ncc4c(c3c2)n(-c2ccc(N3CCNCC3)c(C(F)(F)F)c2)c(=O)n4C)cn1 | – | 1.86 | 376 | 385 | 330 | 1.05
c1ccc2c(-c3cnn4cc(-c5ccc(N6CCNCC6)cc5)cnc34)ccnc2c1 | – | 2.95 | 434 | 498 | 439 | 2.09
CC(C)(C)C[C@H]1N[C@@H](C(=O)N[C@H]2CC[C@H](O)CC2)[C@H](c2cccc(Cl)c2F)[C@@]12C(=O)Nc1cc(Cl)ccc12 | 1.48 | 23.5 | 473 | 461 | – | –
OC1=CC2=C(C(=C1)O)C(=O)\C=C(/O2)C3=CC=CC=C3 | – | 1.66 | 397 | 416 | 437 | 0.263
Cc1ccc(C(=O)Nc2ccc(CN3CCN(C)CC3)c(C(F)(F)F)c2)cc1C#Cc1cnc2[nH]ncc2c1 | – | 8.33 | 441 | 427 | 392 | 8.33
COCCNCc1ccc(-c2cc3nccc(Oc4ccc(NC(=S)NC(=O)Cc5ccc(F)cc5)cc4F)c3s2)nc1 | – | 7.42 | 436 | 444 | 388 | 4.68
Oc1cccc(-c2nc(N3CCOCC3)c3oc4ncccc4c3n2)c1 | – | 0.332 | 401 | 427 | 404 | 2.09
Oc1ccc2ccccc2c1SSc1c(O)ccc2ccccc12 | 41.7 | 23.5 | 487 | 583 | – | –
C[S+]([O-])c1ccc(-c2nc(-c3ccc(F)cc3)c(-c3ccncc3)[nH]2)cc1 (stereo not drawn) | 18.6 | 16.6 | 393 | 420 | – | –
COc1cc(F)c(F)c(Nc2ccc(I)cc2F)c1N[S+](=O)([O-])C1(C[C@H](O)CO)CC1 | 16.6 | 6.61 | 421 | 476 | – | –
C[C@H]1CNC(=O)c2cnn3ccc(nc23)N[C@H](C)c2cc(F)ccc2O1 | – | 6.61 | 523 | 475 | 454 | 2.35
CN\1C(=O)/C(=C(\N=C1NC[C@@H](N)CC2=CC=CC=C2)C3=CC=NC=C3)C4=CC5=C(C=CC=C5)C=C4 | 29.5 | 37.2 | 484 | 571 | – | –
Cc1cc(Nc2cc(N3CCN(C)CC3)nc(Sc3ccc(NC(=O)C4CC4)cc3)n2)[nH]n1 | – | 20.9 | 534 | 569 | 459 | 18.6
CC(C)Nc1cc(-c2c[nH]c(C(=O)N[C@H](CO)c3cccc(Cl)c3)c2)c(Cl)cn1 | 23.5 | 18.6 | 467 | 545 | – | –
